≈ marks a conversion by molar mass, not a printed value. Some results are limits rather than exact numbers.

For one series, the system named is Aedes aegypti. The series can be described thus: Insecticidal activity against yellow fever mosquito larvae […] in bovine liver powder after 4 days by MES assay. The series is classed as functional. The note with it: 96 h.
The next series has as its system A549. The series can be described thus: Cytotoxicity against human A549 cells by MTT assay. The series is classed as functional, cell-based.
The next series deals with A498. The series can be described thus: Cytotoxicity against human A498 cells by MTT assay. The series is classed as functional, cell-based.
The test system of another series is PC-3. Nature of the series: Cytotoxicity against human PC3 cells by MTT assay. The series is classed as functional, cell-based.
A short description of series [1]: Toxicity in Artemia salina. The note with it: in vivo. The series is classed as organism-based.
A further series relates to MCF7. Nature of the series: Cytotoxicity against human MCF7 cells by MTT assay. The series is classed as functional, cell-based.
The test system of a further series is HT-29. The series can be described thus: Cytotoxicity against human HT-29 cells by MTT assay. The series is classed as functional, cell-based.
The test system of a further series is MIA PaCa-2. The series can be described thus: Cytotoxicity against human MIAPaCa2 cells by MTT assay. The series is classed as functional, cell-based.

In turn, `C=C(C)[C@H]1Cc2c(ccc3c2O[C@@H]2COc4cc(OC)c(OC)cc4[C@@H]2C3=O)O1` [ROTENONE] displayed an LC50 in the series on Aedes aegypti of 0.75 µg/mL (≈ 1.9 µM).

Take `C#CCCCCCCCCCCCC(O)CC(O)CO` (stereo unspecified) [AVOCADYNE]: the IC50 with A549 is 4.8 µg/mL (≈ 16.9 µM); with A498, 4.1 µg/mL (≈ 14.4 µM); in the series on PC-3, 0.061 µg/mL (≈ 0.214 µM); in the series on MCF7, 6.5 µg/mL (≈ 22.9 µM); in the series with HT-29 it was 8.9 µg/mL (≈ 31.3 µM); with MIA PaCa-2 it was above 10 µg/mL. In addition, the LC50 stood at 0.077 µg/mL (≈ 0.271 µM) in the series with Aedes aegypti and 0.64 µg/mL (≈ 2.25 µM) in series [1].

Turning to `CCCCCCCCCCCCCCCC(O)CC(O)CO` (stereo unspecified), the IC50 was 3 µg/mL (≈ 9.48 µM) with A549; 2.7 µg/mL (≈ 8.53 µM) in the series with A498; 1.2 µg/mL (≈ 3.79 µM) in the series on PC-3; 3.2 µg/mL (≈ 10.1 µM) in the series with MCF7; 3 µg/mL (≈ 9.48 µM) in the series on HT-29; above 10 µg/mL in the series on MIA PaCa-2. In addition, the LC50 in the series with Aedes aegypti came to 1.8 µg/mL (≈ 5.69 µM); in series [1] it was 2.8 µg/mL (≈ 8.85 µM).

With `C=CCCCCCCCCCCCC(O)CC(O)CO` (stereo unspecified) [AVOCADENE], the IC50 with A549 was determined as 3.4 µg/mL (≈ 11.9 µM); in the series on A498, 3.6 µg/mL (≈ 12.6 µM); with PC-3, 0.46 µg/mL (≈ 1.61 µM); in the series on MCF7 it was 4.4 µg/mL (≈ 15.4 µM); with HT-29, 2.6 µg/mL (≈ 9.08 µM); in the series on MIA PaCa-2 it was 5.3 µg/mL (≈ 18.5 µM). Further, the values for the LC50 (in the series with Aedes aegypti; in series [1]) were 0.21 µg/mL (≈ 0.733 µM) and 1.3 µg/mL (≈ 4.54 µM), respectively.

Take `COc1cccc2c1C(=O)c1c(O)c3c(c(O)c1C2=O)C[C@@](O)(C(=O)CO)C[C@@H]3O[C@H]1C[C@H](N)[C@H](O)[C@H](C)O1` [DOXORUBICIN]: the IC50 came out at 0.0022 µg/mL (≈ 0.00405 µM) with A549; 0.0049 µg/mL (≈ 0.00902 µM) in the series with A498; 0.011 µg/mL (≈ 0.0202 µM) with PC-3; 0.081 µg/mL (≈ 0.149 µM) with MCF7; 0.0053 µg/mL (≈ 0.00975 µM) in the series on HT-29; 0.0024 µg/mL (≈ 0.00442 µM) in the series with MIA PaCa-2.

The values are drawn from ChEMBL document CHEMBL1150906, “Cytotoxic and insecticidal constituents of the unripe fruit of Persea americana” (J Nat Prod, 1998).
